Counter-ions that a name gives are not always drawn.

Sequence of human σ1 receptor (Q99720 whole entry): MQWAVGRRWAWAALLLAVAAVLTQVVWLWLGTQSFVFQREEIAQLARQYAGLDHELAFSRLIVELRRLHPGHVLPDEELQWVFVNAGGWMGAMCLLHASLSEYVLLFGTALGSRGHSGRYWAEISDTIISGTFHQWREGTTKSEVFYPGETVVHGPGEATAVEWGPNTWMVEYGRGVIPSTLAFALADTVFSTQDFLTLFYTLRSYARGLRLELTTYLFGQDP

The first test has as its target human σ1 receptor (Homo sapiens, UniProt Q99720). The test can be described thus: biochemical. The class given is binding.
Conditions: not given
Also noted: μ and σ1 dual binding: key to the marks not given beside the values.
`C[C@@H]1OC2(CCN(C[C@@H](O)c3ccccc3)CC2)CN(c2ccccc2)C1=O` [Example 151c, (S)-9-((S)-2-hydroxy-2-phenylethyl)-2-methyl-4-phenyl-1-oxa-4,9-diazaspiro[5.5]undecan-3-one]: the Ki is below 0.5 µM. On the same count and under the same terms, the result for `CC1OC2(CCN(CCCc3ccccc3)CC2)CN(c2ccccc2)C1=O` (stereo not drawn) [Example 60, 2-methyl-4-phenyl-9-(3-phenylpropyl)-1-oxa-4,9-diazaspiro[5.5]undecan-3-one hydrochloride] reads below 0.5 µM.

Turning to `COc1ccccc1CCN1CCC2(CC1)CN(c1ccccc1)C(=O)C(C)O2` (stereo not drawn) [Example 57, 9-(2-methoxyphenethyl)-2-methyl-4-phenyl-1-oxa-4,9-diazaspiro[5.5]undecan-3-one hydrochloride], the Ki is below 0.1 µM. `CC1OC2(CCN(CCc3ncccc3C(F)(F)F)CC2)CN(c2ccccc2)C1=O` (stereo not drawn) [Example 33, 2-methyl-4-phenyl-9-(2-(3-(trifluoromethyl)pyridin-2-yl)ethyl)-1-oxa-4,9-diazaspiro[5.5]undecan-3-one hydrochloride] displayed a Ki below 0.5 µM. As to `CC1OC2(CCN(CCc3ccccc3)CC2)CN(Cc2nccn2C)C1=O.Cl` (stereo not drawn) [Example 172, 2-methyl-4-((1-methyl-1H-imidazol-2-yl)methyl)-9-phenethyl-1-oxa-4,9-diazaspiro[5.5]undecan-3-one hydrochloride], the “μ and σ1 dual binding” value was “++”.

Turning to `CC1OC2(CCN(CCc3ccccc3)CC2)CN(Cc2ccn(C)n2)C1=O` (stereo not drawn) [Example 171, 2-methyl-4-((1-methyl-1H-pyrazol-3-yl)methyl)-9-phenethyl-1-oxa-4,9-diazaspiro[5.5]undecan-3-one], the Ki is below 0.5 µM.

`CC1OC2(CCN(CCc3ccccc3)CC2)CN(c2ccccn2)C1=O.Cl` (stereo not drawn) [Example 196, 2-methyl-9-phenethyl-4-(pyridin-2-yl)-1-oxa-4,9-diazaspiro[5.5]undecan-3-one hydrochloride]: the “μ and σ1 dual binding” value is on record as “++”. Regarding `Cc1ncsc1CCN1CCC2(CC1)CN(c1ccccc1)C(=O)C(C)O2` (stereo not drawn) [Example 61, 2-methyl-9-(2-(4-methylthiazol-5-yl)ethyl)-4-phenyl-1-oxa-4,9-diazaspiro[5.5]undecan-3-one hydrochloride], the Ki was below 0.5 µM. On the same count and under the same terms, the result for `CC1OC2(CCN(CCc3ccccc3NS(C)(=O)=O)CC2)CN(c2ccccc2)C1=O` (stereo not drawn) [Example 257, N-(2-(2-(2-methyl-3-oxo-4-phenyl-1-oxa-4,9-diazaspiro[5.5]undecan-9-yl)ethyl)phenyl)methanesulfonamide] reads below 0.5 µM; that for `CC1OC2(CCN(CCc3cccc(NC(N)=O)n3)CC2)CN(c2ccccc2)C1=O` (stereo not drawn) [Example 264, 1-(6-(2-(2-methyl-3-oxo-4-phenyl-1-oxa-4,9-diazaspiro[5.5]undecan-9-yl)ethyl)pyridin-2-yl)urea], below 0.5 µM. `CC(C)C1OC2(CCN(CCc3ccccc3)CC2)CN(c2ccccc2F)C1=O` (stereo not drawn) [Example 312, 4-(2-fluorophenyl)-2-isopropyl-9-phenethyl-1-oxa-4,9-diazaspiro[5.5]undecan-3-one hydrochloride]: the Ki was below 0.1 µM. Still for that read-out and setting: the result for `CC1OC2(CCN(CCc3cccc(NS(C)(=O)=O)c3)CC2)CN(c2ccccc2)C1=O` (stereo not drawn) [Example 256, N-(3-(2-(2-methyl-3-oxo-4-phenyl-1-oxa-4,9-diazaspiro[5.5]undecan-9-yl)ethyl)phenyl)methanesulfonamide] reads below 0.5 µM. Molecule `CC1OC2(CCN(CCc3ccccc3)CC2)CN(Cc2cccc(C(F)(F)F)n2)C1=O` (stereo not drawn) [Example 174, 2-methyl-9-phenethyl-4-((6-(trifluoromethyl)pyridin-2-yl)methyl)-1-oxa-4,9-diazaspiro[5.5]undecan-3-one hydrochloride] displayed a Ki below 0.1 µM.

Staying with this test, now noted: read-out: μ and σ1 dual binding.
Regarding `CC1OC2(CCN(CCn3c(=O)oc4ccccc43)CC2)CN(c2ccccc2)C1=O` (stereo not drawn) [Example 74, 3-(2-(2-methyl-3-oxo-4-phenyl-1-oxa-4,9-diazaspiro[5.5]undecan-9-yl)ethyl)benzo[d]oxazol-2(3H)-one hydrochloride], the Ki is below 0.5 µM.

Turning to `CC1OC2(CCN(CCc3ccccc3)CC2)CN(c2cnccn2)C1=O` (stereo not drawn) [Example 195, 2-methyl-9-phenethyl-4-(pyrazin-2-yl)-1-oxa-4,9-diazaspiro[5.5]undecan-3-one hydrochloride], the Ki is below 0.5 µM.

With `C[C@@H]1OC2(CCN(CCc3ccccc3)CC2)CN(c2ccccc2)C1=O` [Example 10b, (S)-2-methyl-9-phenethyl-4-phenyl-1-oxa-4,9-diazaspiro[5.5]undecan-3-one], the Ki is below 0.1 µM. Still for that read-out and setting: the result for `CC1OC2(CCN(CCc3ccc([N+](=O)[O-])cc3)CC2)CN(c2ccccc2)C1=O` (stereo not drawn) [Example 66, 2-methyl-9-(4-nitrophenethyl)-4-phenyl-1-oxa-4,9-diazaspiro[5.5]undecan-3-one] reads above 0.5 µM; that for `CC1OC2(CCN(CCc3ccccc3F)CC2)CN(c2cnccc2C(F)(F)F)C1=O` (stereo not drawn) [Example 126, 9-(2-fluorophenethyl)-2-methyl-4-(4-(trifluoromethyl)pyridin-3-yl)-1-oxa-4,9-diazaspiro[5.5]undecan-3-one hydrochloride], below 0.1 µM; that for `CC1OC2(CCN(CCc3ncccc3Cl)CC2)CN(Cc2ccc(F)cn2)C1=O` (stereo not drawn) [Example 46, 9-(2-(3-chloropyridin-2-yl)ethyl)-4-((5-fluoropyridin-2-yl)methyl)-2-methyl-1-oxa-4,9-diazaspiro[5.5]undecan-3-one hydrochloride], below 0.5 µM.

`O=C1COC2(CCN(CCc3ccccc3)CC2)CN1Cc1cccc([N+](=O)[O-])c1` [Example 179, 4-(3-nitrobenzyl)-9-phenethyl-1-oxa-4,9-diazaspiro[5.5]undecan-3-one]: the Ki is above 0.5 µM.

As for `CCOC(=O)c1cccc(CCN2CCC3(CC2)CN(c2ccccc2F)C(=O)C(C)O3)c1` (stereo not drawn) [Example 143, ethyl 3-(2-(4-(2-fluorophenyl)-2-methyl-3-oxo-1-oxa-4,9-diazaspiro[5.5]undecan-9-yl)ethyl)benzoate], the Ki is above 0.5 µM. On the same count and under the same terms, the result for `O=C1N(Cc2ccc(C(F)(F)F)cn2)CC2(CCN(CCc3cccc([N+](=O)[O-])c3)CC2)OC12CC2` [Example 119, 8-(3-nitrophenethyl)-12-{[5-(trifluoromethyl)pyridin-2-yl]methyl}-4-oxa-8,12-diazadispiro[2.1.5.3]tridecan-13-one] reads above 0.5 µM; that for `Nc1cccc(CCN2CCC3(CC2)CN(Cc2ccc(C(F)(F)F)cn2)C(=O)CO3)c1` [Example 235, 9-(3-aminophenethyl)-4-((5-(trifluoromethyl)pyridin-2-yl)methyl)-1-oxa-4,9-diazaspiro[5.5]undecan-3-one], above 0.5 µM; that for `COC(=O)CCN1CCC2(CC1)CN(c1ccccc1)C(=O)C(C)O2` (stereo not drawn) [Example 64, methyl 3-(2-methyl-3-oxo-4-phenyl-1-oxa-4,9-diazaspiro[5.5]undecan-9-yl)propanoate], above 0.5 µM. Still for that read-out and setting: the result for `CC(=O)Nc1cccc(CN2CC3(CCN(CCc4ccccc4)CC3)OCC2=O)c1` [Example 249, N-(3-((3-oxo-9-phenethyl-1-oxa-4,9-diazaspiro[5.5]undecan-4-yl)methyl)phenyl)acetamide hydrochloride] reads above 0.5 µM; that for `Nc1cccc(CCN2CCC3(CC2)CN(Cc2ccc(C(F)(F)F)cn2)C(=O)C2(CC2)O3)c1` [Example 239, 8-(3-aminophenethyl)-12-{[5-(trifluoromethyl)pyridin-2-yl]methyl}-4-oxa-8,12-diazadispiro[2.1.5.3]tridecan-13-one], above 0.5 µM. Still for that read-out and setting: the result for `CC1OC2(CCN(CCc3ncccc3[N+](=O)[O-])CC2)CN(c2ccccc2F)C1=O` (stereo not drawn) [Example 25, 4-(2-fluorophenyl)-2-methyl-9-(2-(3-nitropyridin-2-yl)ethyl)-1-oxa-4,9-diazaspiro[5.5]undecan-3-one] reads above 0.5 µM; that for `CC1OC2(CCN(CCc3ccc(N)cn3)CC2)CN(c2ccccc2)C1=O` (stereo not drawn) [Example 236, 9-(2-(5-aminopyridin-2-yl)ethyl)-2-methyl-4-phenyl-1-oxa-4,9-diazaspiro[5.5]undecan-3-one], above 0.5 µM. For `CNS(=O)(=O)c1ccc(CCN2CCC3(CC2)CN(c2ccccc2)C(=O)C(C)O3)cc1` (stereo not drawn) [Example 107, N-methyl-4-(2-(2-methyl-3-oxo-4-phenyl-1-oxa-4,9-diazaspiro[5.5]undecan-9-yl)ethyl)benzenesulfonamide], the Ki was above 0.5 µM. On to `COc1ccccc1CCN1CCC2(CC1)CN(Cc1ccccn1)C(=O)CO2` [Example 79, 9-(2-methoxyphenethyl)-4-(pyridin-2-ylmethyl)-1-oxa-4,9-diazaspiro[5.5]undecan-3-one], for which the Ki was below 0.5 µM. With `COc1ccccc1N1CC2(CCN(CCc3ccccc3)CC2)OC(C)C1=O` (stereo not drawn) [Example 206, 4-(2-methoxyphenyl)-2-methyl-9-phenethyl-1-oxa-4,9-diazaspiro[5.5]undecan-3-one hydrochloride], the Ki is below 0.1 µM.

`CS(=O)(=O)Nc1cccc(CN2CC3(CCN(CCc4ccccc4)CC3)OCC2=O)c1` [Example 259, N-(3-((3-oxo-9-phenethyl-1-oxa-4,9-diazaspiro[5.5]undecan-4-yl)methyl)phenyl)methanesulfonamide hydrochloride]: the Ki was above 0.5 µM. With `O=C1N(c2cccnc2C(F)(F)F)CC2(CCN(CCc3ccccc3F)CC2)OC12CC2` [Example 219, 8-(2-fluorophenethyl)-12-(2-(trifluoromethyl)pyridin-3-yl)-4-oxa-8,12-diazadispiro[2.1.5.3]tridecan-13-one], the Ki was below 0.5 µM.

For the molecule `CC1OC2(CCN(CCc3ccccc3)CC2)CN(c2ccc(C(F)(F)F)nc2)C1=O` (stereo not drawn) [Example 212, 2-methyl-9-phenethyl-4-(6-(trifluoromethyl)pyridin-3-yl)-1-oxa-4,9-diazaspiro[5.5]undecan-3-one hydrochloride], the Ki was above 0.5 µM. With `O=C1COC2(CCN(CCc3ccccc3)CC2)CN1c1cccc(F)c1` [Example 191, 4-(3-fluorophenyl)-9-phenethyl-1-oxa-4,9-diazaspiro[5.5]undecan-3-one], the Ki is below 0.5 µM. The same measure, in the same setting: the result for `O=C1N(CCO)CC2(CCN(CCc3ccccc3)CC2)OC12CC2` [Example 310, 12-(2-hydroxyethyl)-8-phenethyl-4-oxa-8,12-diazadispiro[2.1.5.3]tridecan-13-one hydrochloride] reads above 0.5 µM.

Values taken from patent US10703765B2 (priority 2014, dated 2020).
